According to patent US12252701B2, “Chimeric antigen receptor T cell therapy” (KITE PHARMA, INC., priority 2020, dated 2025):

Assays:
[1] = tested on: NALM6.GFP.LUC.CD19 target cells; assay: Serial killing assay of CAR-T, percent cytotoxicity by luciferase detection; conditions: two different E:T ratios, dose titration
[2] = tested on: phospho-STAT-1, -3 and -5 in purified CD14+ monocytes; assay: Intracellular phospho-STAT-1, -3, -5 by BD PhosphoFlow in purified monocytes; type: cell-based, human; parameters: Monocyte-specific pSTAT1 signaling, inhibition / Monocyte-specific pSTAT3 signaling, inhibition / Monocyte-specific pSTAT5 signaling, inhibition: concentration or dose not given beside the values; conditions: purified CD14+ monocytes
Description: (§1) Further experiments were performed to look at impacts of JAK inhibitors on STAT phosphorylation in various immune cell subsets.

[3] = cited from earlier work
[4] = Clinical pharmacokinetic data converted to in vitro concentrations; conditions: human, in vivo
From the text: Given the different potencies of the JAK inhibitors and different pharmacokinetic properties for each drug, it was sought to test each drug at a relevant range of physiological concentrations based on clinical dosing and reported pharmacokinetic data from repeat dose studies. Reported Cmax values in patient sera were converted to in vitro concentrations and adjusted for reported plasma protein binding.

[5] = tested on: phospho-STAT-1, -3 and -5 in CD4, CD8 T cells and monocytes (CAR T product, PBMCs); assay: Intracellular phospho-STAT-1, -3, -5 by flow cytometry in immune cell subsets of CAR T product and PBMCs; type: cell-based, human; parameters: Primary Cell IL-6 pSTAT5 signaling (% inhibition) / Primary Cell IL-6 pSTAT1 signaling (% inhibition) / Primary Cell IL-6 pSTAT3 signaling (% inhibition) / Primary cell GM-CSF-pSTAT5, inhibition: concentration or dose not given beside the values
Description: as §1

CAR-T cells = assay: CAR-T cell expansion assay (KIP-1 or CD3/CD28 stimulation); conditions: for % viability: CD3/CD28; for % viabili.: CD3/CD28 stimulation
[6] = CAR T cell-derived supernatant, 30 min

With `CC[C@@H]1CN(C(=O)NCC(F)(F)F)C[C@@H]1c1cnc2cnc3[nH]ccc3n12` [upadacitinib] the “impact on CAR-T serial killing (percent cytotoxicity)” value [1] was “negative impacts”, the “Monocyte-specific pSTAT1 signaling, inhibition” value [2, 6] was 100% and the “Monocyte-specific pSTAT3 signaling, inhibition” value [2, 6] was 100%. For the same compound, the “Monocyte-specific pSTAT5 signaling, inhibition” value [2, 6] was 63%, the “Monocyte-specific pSTAT1 signaling, inhibition” value ([2]; rh-GM-CSF-induced) was “na/ni” and the “Monocyte-specific pSTAT3 signaling, inhibition” value ([2]; rh-GM-CSF-induced) was “na/ni”. For the same compound, the “Monocyte-specific pSTAT5 signaling, inhibition” value ([2]; rh-GM-CSF-induced) was 54%, the “Monocyte-specific pSTAT1 signaling, inhibition” value ([2]; rhIFNg-induced) was 100% and the “Monocyte-specific pSTAT3 signaling, inhibition” value ([2]; rhIFNg-induced) was 100%. The “Monocyte-specific pSTAT5 signaling, inhibition” value ([2]; rhIFNg-induced) was 100%, the “Monocyte-specific pSTAT1 signaling, inhibition” value ([2]; rhIL6-induced) was “na/ni” and the “Monocyte-specific pSTAT3 signaling, inhibition” value ([2]; rhIL6-induced) was 100%. The “Monocyte-specific pSTAT5 signaling, inhibition” value ([2]; rhIL6-induced) was “na/ni”, the “Cmax” value ([3]; clinical dosing, patient sera, repeat dose studies) was 73.9 ng/mL and the Protein binding ([3]; plasma protein binding, reported) was roughly 50%. The “PPB adj. in Vitro concentration” value [4] was 97 nM, the “clinically relevant dose level (in vitro concentration)” value [4] was roughly 100 nM and the “Primary Cell IL-6 pSTAT1 signaling (% inhibition)” value ([5]; CD4 CART cells) was 49%. For the same compound, the “Primary Cell IL-6 pSTAT3 signaling (% inhibition)” value ([5]; CD4 CART cells) was 76%, the “Primary Cell IL-6 pSTAT5 signaling (% inhibition)” value ([5]; CD4 CART cells) was 60% and the “Primary Cell IL-6 pSTAT1 signaling (% inhibition)” value ([5]; CD8 CART cells) was 13%. For the same compound, the “Primary Cell IL-6 pSTAT3 signaling (% inhibition)” value ([5]; CD8 CART cells) was 48%, the “Primary Cell IL-6 pSTAT5 signaling (% inhibition)” value ([5]; CD8 CART cells) was 52% and the “Primary cell GM-CSF-pSTAT5, inhibition” value ([5]; Monocytes within bulk PBMCs) was 97%. The “Primary Cell IL-6 pSTAT1 signaling (% inhibition)” value ([5]; PBMC CD4 T cells) was 74%, the “Primary Cell IL-6 pSTAT3 signaling (% inhibition)” value ([5]; PBMC CD4 T cells) was 91% and the “Primary Cell IL-6 pSTAT5 signaling (% inhibition)” value ([5]; PBMC CD4 T cells) was 87%. The “Primary Cell IL-6 pSTAT1 signaling (% inhibition)” value ([5]; PBMC CD8 T cells) was 32%, the “Primary Cell IL-6 pSTAT3 signaling (% inhibition)” value ([5]; PBMC CD8 T cells) was 70% and the “Primary Cell IL-6 pSTAT5 signaling (% inhibition)” value ([5]; PBMC CD8 T cells) was 56%. The “Primary Cell IL-6 pSTAT1 signaling (% inhibition)” value ([5]; PBMC Monocytes) was 48%, the “Primary Cell IL-6 pSTAT3 signaling (% inhibition)” value ([5]; PBMC Monocytes) was 93% and the “Primary Cell IL-6 pSTAT5 signaling (% inhibition)” value ([5]; PBMC Monocytes) was 48%. For the same compound, the “Primary cell GM-CSF-pSTAT5, inhibition” value ([5]; T cells within bulk PBMCs) was 47%, the “% viability” value (CAR-T cells; dose 50 nM, day 4) was 74.4% and the “% viability” value (CAR-T cells; dose 50 nM, day 8) was 69.5%. For the same compound, the “% viability” value (CAR-T cells; dose 50 nM, day 12) was 80.6%, the “% viability” value (CAR-T cells; dose 100 nM, day 4) was 64.1% and the “% viability” value (CAR-T cells; dose 100 nM, day 8) was 69.2%. The “% viability” value (CAR-T cells; dose 100 nM, day 12) was 66.4%, the “% viabili.” value (CAR-T cells; 10 nM, Day 0) was 84% and the “% viabili.” value (CAR-T cells; 10 nM, Day 4) was 92.6%. For the same compound, the “% viabili.” value (CAR-T cells; 10 nM, Day 8) was 88.4%, the “% viabili.” value (CAR-T cells; 10 nM, Day 12) was 71.6% and the “% viabili.” value (CAR-T cells; 20 nM, Day 0) was 84%. For the same compound, the “% viabili.” value (CAR-T cells; 20 nM, Day 4) was 93.8%, the “% viabili.” value (CAR-T cells; 20 nM, Day 8) was 92% and the “% viabili.” value (CAR-T cells; 20 nM, Day 12) was 72.7%. The “% viabili.” value (CAR-T cells; 40 nM, Day 0) was 84%, the “% viabili.” value (CAR-T cells; 40 nM, Day 4) was 91.4% and the “% viabili.” value (CAR-T cells; 40 nM, Day 8) was 77%. For the same compound, the “% viabili.” value (CAR-T cells; 40 nM, Day 12) was 73.2%, the “% viabili.” value (CAR-T cells; 60 nM, Day 0) was 84% and the “% viabili.” value (CAR-T cells; 60 nM, Day 4) was 90.6%. For the same compound, the “% viabili.” value (CAR-T cells; 60 nM, Day 8) was 90.5%, the “% viabili.” value (CAR-T cells; 60 nM, Day 12) was 76.3% and the “% viabili.” value (CAR-T cells; 80 nM, Day 0) was 84%. The “% viabili.” value (CAR-T cells; 80 nM, Day 4) was 88.3%, the “% viabili.” value (CAR-T cells; 80 nM, Day 8) was 86.4% and the “% viabili.” value (CAR-T cells; 80 nM, Day 12) was 75%. The “% viabili.” value (CAR-T cells; 100 nM, Day 0) was 84%, the “% viabili.” value (CAR-T cells; 100 nM, Day 4) was 84.2% and the “% viabili.” value (CAR-T cells; 100 nM, Day 8) was 84.3%. The “% viabili.” value (CAR-T cells; 100 nM, Day 12) was 72.5%.
